In patent US20040138488A1, “Benzene-1 2-diol mannich bases ligands polymers and method of selective metal ions removal” (priority 2001, published 2004):

SMILES	melting point
COc1cccc(CN2CCN(Cc3cccc(OC)c3O)CC2)c1O [Example 15, 6,6′-Dimethoxy-2,2′-(piperazine-1,4-diylbismethylene)diphenol]	197 to 198 °C
CN(CCCN(C)Cc1cccc(O)c1O)Cc1cccc(O)c1O [Example 19, 3,3′-[Propane-1,3-diylbis(methyliminomethylene)]di(catechol)]	130 °C (dec.)
Oc1cccc(CN2CCN(Cc3cccc(O)c3O)CC2)c1O [Example 20, 3,3′-(Piperazine-1,4-diylbismethylene)di(catechol)]	210 °C (dec.)

The remaining lines, values ahead:

melting point	SMILES
115 to 116 °C	COc1cccc(CN(C)CCN(C)Cc2cccc(OC)c2O)c1O [Example 12, 6,6′-Dimethoxy-2,2′-[ethylenebis(methyliminomethylene)]diphenol]
71 to 72 °C	CCN(CCN(CC)Cc1cccc(OC)c1O)Cc1cccc(OC)c1O [Example 13, 6,6′-Dimethoxy-2,2′-[ethylenebis(ethyliminomethylene)]diphenol]
78 to 79 °C	COc1cccc(CN(C)CCCN(C)Cc2cccc(OC)c2O)c1O [Example 14, 6,6′-Dimethoxy-2,2′-[propane-1,3-diylbis(methyliminomethylene)]diphenol]
